# In article PMC11008251, “Distribution of 2,2′,5,5′-Tetrachlorobiphenyl (PCB52) Metabolites in Adolescent Rats after Acute Nose-Only Inhalation Exposure” (Environmental Science & Technology, 2024):
# Where two headings read alike, the source gives them in different places.
# How the values were obtained:
# [1] = LC-HRMS analysis of PCB52 metabolites in tissues after 4 h nose-only inhalation; type: in vivo, Sprague–Dawley rats
# Experimental: The Institutional Animal Care and Use Committee of the University of Iowa approved all of the animal protocols. Animals were housed in a temperature- and humidity-controlled room (21 °C, 55% relative humidity) with a 12 h light/dark cycle in an Association for the Assessment and Accreditation of Laboratory Animal Care (AAALAC) accredited animal facility. Animals were provided with food (sterile Teklad 5% stock diet, Harlan, Madison, WI) and water ad libitum throughout the study. Thirty-six male and female Sprague–Dawley rats (7 weeks of age; Charles River, Wilmington, MA) were allowed to acclimate to the animal facility for 8 days after arrival. Prior to exposure, rats (227 ± 27 and 197 ± 13 g, male and female, respectively) were randomly assigned to the exposure groups (n = 6 per group) using a random number generated (Excel, version 2307). Animals were simultaneously exposed for 4 h to a low or high concentration of PCB52-laden per sex) or filtered lab air (Figure 1A). Exposure duration was limited to 4 h along with scheduled training days (30 min at 55 days of age and 2 h at 56 days of age) to acclimate animals and minimize stress. […]
# Tissues (brain, cecum and intestinal content, liver, lung, and serum) were homogenized and extracted for LC-HRMS analysis following a published approach; see the Supporting Information.[19] Extracts were analyzed at the High-Resolution Mass Spectrometry Facility at the University of Iowa on a Q-Exactive Orbitrap mass spectrometer (Thermo Fisher Scientific, Waltham, MA, U.S.A.) with an Axquity UPLC-C18 column (particle size: […], 2.1 × 100 mm, Waters, Milford, MA, U.S.A.); see the Supporting Information. […]
# All analyses were conducted by using validated standard operating procedures. […] X1-OH-PCB52 estimated concentrations were calculated based on the relative response factor of 4-OH-PCB52. The precision and recoveries of the analyses were further assessed by measuring the recovery of PCB52 and 4-OH-PCB52 from spiked sample blanks and matched blank tissue matrices (Table S6). […]
# were extracted and analyzed in parallel. […]
# [2] = PCB52 and monohydroxylated metabolite tissue levels by GC-MS/MS after 4 h nose-only inhalation; type: in vivo, Sprague–Dawley rats; details: for concentration at 4 h: Sprague-Dawley, rat, inhaled, mean
# Experimental: PCB52 vapor for the animal exposure was generated using a published protocol.[12] Briefly, 450 g of 3 mm diameter glass beads were added to a solution of 1.5 g of PCB52 in dichloromethane. The glass beads were then coated with PCB52 by evaporating dichloromethane in a water bath at 29 °C using a rotary evaporator (Buchi Rotavapor R-200, New Castle, DE) under reduced pressure. For the animal exposures, high-efficiency particulate air (HEPA)-filtered laboratory air was passed through the PCB52-coated glass beads at a flow rate of 12 L/min to expose animals to PCB52 vapor in a nose-only exposure apparatus (Figure 1A). The flask of PCB52-coated beads and mixing chamber were kept at 25.0 °C using a precision water bath to facilitate the volatilization of PCB52. The PCB52-laden air was passed through a mixing chamber and distributed to the nose-only inhalation apparatus at a flow rate of 4 L/min per tower (n = 3) and a sampling cartridge filled with 10 g of Amberlite XAD-2 polymeric absorbent resin (Sigma-Aldrich, St. Louis, MO) at a flow rate of 2 L/min. The specified flow rates were generated using flow meter-regulated pumps. The XAD-2 cartridge was used to capture PCB52 vapor to characterize the exposure atmosphere. A sham exposure group was exposed in parallel to HEPA-filtered clean air in an identical nose-only exposure system in an adjacent lab with no supplied PCB52.
# The Institutional Animal Care and Use Committee of the University of Iowa approved all of the animal protocols. Animals were housed in a temperature- and humidity-controlled room (21 °C, 55% relative humidity) with a 12 h light/dark cycle in an Association for the Assessment and Accreditation of Laboratory Animal Care (AAALAC) accredited animal facility. Animals were provided with food (sterile Teklad 5% stock diet, Harlan, Madison, WI) and water ad libitum throughout the study. Thirty-six male and female Sprague–Dawley rats (7 weeks of age; Charles River, Wilmington, MA) were allowed to acclimate to the animal facility for 8 days after arrival. Prior to exposure, rats (227 ± 27 and 197 ± 13 g, male and female, respectively) were randomly assigned to the exposure groups (n = 6 per group) using a random number generated (Excel, version 2307). Animals were simultaneously exposed for 4 h to a low or high concentration of PCB52-laden per sex) or filtered lab air (Figure 1A). Exposure duration was limited to 4 h along with scheduled training days (30 min at 55 days of age and 2 h at 56 days of age) to acclimate animals and minimize stress. […] Animal exposure occurred for 4 h at 57 days of age. Rats are considered adolescents at this age.[38] Serum was collected immediately after the animals were removed from the nose-only apparatus by cardiac puncture under isoflurane anesthesia. Rats were perfused with saline, and organs were excised and stored at −80 °C. Body and organ weights, including brain, lungs, and thymus, were not altered by PCB52 inhalation regardless of sex or exposure (Tables S2 and S3).
# PCB52 and its hydroxylated metabolites were extracted from tissues, serum, and cecum and intestinal content using a published protocol;[40],[41] see the Supporting Information. Briefly, PCB52 and its metabolites were extracted from homogenates by liquid–liquid extraction and cleaned by solid-phase extraction with acidified silica gel. PCB52 and metabolites were quantified in the multiple reaction monitoring setting (MRM) on an Agilent 7890 A GC system equipped with an Agilent 7000 Triple Quad and Agilent 7693 autosampler (Agilent Technologies, Santa Clara, CA); see the Supporting Information.
# PCB52 and metabolite levels, adjusted for tissue wet weight, are reported as the mean ± standard deviation. Differences in PCB52 and metabolite levels from the GC-MS/MS analysis were analyzed with the Tobit regression model because some measurements are below the detection limit. […]
smiles,measurement,setting,value
"Clc1ccc(Cl)c(-c2cc(Cl)ccc2Cl)c1 [PCB52, 2,2′,5,5′-tetrachlorobiphenyl]",number of PCB52 metabolites identified by LC-HRMS,[1]; liver,7 metabolites
same,number of PCB52 metabolites identified by LC-HRMS,[1]; lung,9 metabolites
same,number of PCB52 metabolites identified by LC-HRMS,[1]; serum,9 metabolites
same,concentration at 4 h,"[2]; female, adipose, female, high dose, read-out: PCB or metabolite detected level, Adipose",6 ng/g
same,concentration at 4 h,"[2]; female, adipose, female, low dose, read-out: PCB or metabolite detected level, Adipose",6 ng/g
same,concentration at 4 h,"[2]; female, brain, female, high dose, read-out: PCB or metabolite detected level, Brain",2 ng/g
same,concentration at 4 h,"[2]; female, brain, female, low dose, read-out: PCB or metabolite detected level, Brain",2 ng/g
same,concentration at 4 h,"[2]; female, cecum, female, high dose, read-out: PCB or metabolite detected level, Cecum",1 ng/g
same,concentration at 4 h,"[2]; female, cecum, female, low dose, read-out: PCB or metabolite detected level, Cecum",1 ng/g
same,concentration at 4 h,"[2]; female, intestinal content, female, high dose, read-out: PCB or metabolite detected level, Intestinal content",2 ng/g
same,concentration at 4 h,"[2]; female, intestinal content, female, low dose, read-out: PCB or metabolite detected level, Intestinal content",5 ng/g
same,concentration at 4 h,"[2]; female, liver, female, high dose, read-out: PCB or metabolite detected level, Liver",7 ng/g
same,concentration at 4 h,"[2]; female, liver, female, low dose, read-out: PCB or metabolite detected level, Liver",7 ng/g
same,concentration at 4 h,"[2]; female, lung, female, high dose, read-out: PCB or metabolite detected level, Lung",45 ng/g
same,concentration at 4 h,"[2]; female, lung, female, low dose, read-out: PCB or metabolite detected level, Lung",41 ng/g
same,concentration at 4 h,"[2]; female, serum, female, high dose, read-out: PCB or metabolite detected level, Serum",1 ng/g
same,concentration at 4 h,"[2]; female, serum, female, low dose, read-out: PCB or metabolite detected level, Serum",1 ng/g
same,general trend of decreasing tissue concentration,"[2]; irrespective of sex or dose, GC-MS/MS",lung > liver > adipose > brain ≈ intestinal content ≈ cecum ≈ serum
same,concentration at 4 h,"[2]; male, adipose, male, high dose, read-out: PCB or metabolite detected level, Adipose",8 ng/g
same,concentration at 4 h,"[2]; male, adipose, male, low dose, read-out: PCB or metabolite detected level, Adipose",6 ng/g
same,concentration at 4 h,"[2]; male, brain, male, high dose, read-out: PCB or metabolite detected level, Brain",2 ng/g
same,concentration at 4 h,"[2]; male, brain, male, low dose, read-out: PCB or metabolite detected level, Brain",1 ng/g
same,concentration at 4 h,"[2]; male, cecum, male, high dose, read-out: PCB or metabolite detected level, Cecum",2 ng/g
same,concentration at 4 h,"[2]; male, cecum, male, low dose, read-out: PCB or metabolite detected level, Cecum",1 ng/g
same,concentration at 4 h,"[2]; male, intestinal content, male, high dose, read-out: PCB or metabolite detected level, Intestinal content",1 ng/g
same,concentration at 4 h,"[2]; male, intestinal content, male, low dose, read-out: PCB or metabolite detected level, Intestinal content",1 ng/g
same,concentration at 4 h,"[2]; male, liver, male, high dose, read-out: PCB or metabolite detected level, Liver",10 ng/g
same,concentration at 4 h,"[2]; male, liver, male, low dose, read-out: PCB or metabolite detected level, Liver",9 ng/g
same,concentration at 4 h,"[2]; male, lung, male, high dose, read-out: PCB or metabolite detected level, Lung",46 ng/g
same,concentration at 4 h,"[2]; male, lung, male, low dose, read-out: PCB or metabolite detected level, Lung",50 ng/g
same,concentration at 4 h,"[2]; male, serum, male, high dose, read-out: PCB or metabolite detected level, Serum",2 ng/g
same,concentration at 4 h,"[2]; male, serum, male, low dose, read-out: PCB or metabolite detected level, Serum",2 ng/g
